Laboratory results published in patent US20090048260A1, “Use of pyrrolopyrazine derivatives for the production of medicaments for the treatment of mucoviscidosis and diseases related to protein addressing errors in cells” (priority 2004, published 2009).
Several values for one entry are separate records, joined by “and”; a condition that tells them apart may be missing. Identical values can stand only once. Values belong to the compound of their own block, whether it stands above or below them.

Tests used:
delF508-CFTR [1] = target: T1, delF508-CFTR (Homo sapiens, UniProt P13569, DEL508-508); test: iodide efflux, targeting (retargeting) of delF508-CFTR in CF15 cells; assay type: cell-based; conditions: for effect of known CFTR inhibitors on delF508 transport after treatment with aloisine A: CF15 cells treated with aloisine A
T1 construct: endogenous in cells; host or cells: CF15 (homozygous delF508)
T1 sequence (P13569 with tags, fused parts or gaps DEL508-508): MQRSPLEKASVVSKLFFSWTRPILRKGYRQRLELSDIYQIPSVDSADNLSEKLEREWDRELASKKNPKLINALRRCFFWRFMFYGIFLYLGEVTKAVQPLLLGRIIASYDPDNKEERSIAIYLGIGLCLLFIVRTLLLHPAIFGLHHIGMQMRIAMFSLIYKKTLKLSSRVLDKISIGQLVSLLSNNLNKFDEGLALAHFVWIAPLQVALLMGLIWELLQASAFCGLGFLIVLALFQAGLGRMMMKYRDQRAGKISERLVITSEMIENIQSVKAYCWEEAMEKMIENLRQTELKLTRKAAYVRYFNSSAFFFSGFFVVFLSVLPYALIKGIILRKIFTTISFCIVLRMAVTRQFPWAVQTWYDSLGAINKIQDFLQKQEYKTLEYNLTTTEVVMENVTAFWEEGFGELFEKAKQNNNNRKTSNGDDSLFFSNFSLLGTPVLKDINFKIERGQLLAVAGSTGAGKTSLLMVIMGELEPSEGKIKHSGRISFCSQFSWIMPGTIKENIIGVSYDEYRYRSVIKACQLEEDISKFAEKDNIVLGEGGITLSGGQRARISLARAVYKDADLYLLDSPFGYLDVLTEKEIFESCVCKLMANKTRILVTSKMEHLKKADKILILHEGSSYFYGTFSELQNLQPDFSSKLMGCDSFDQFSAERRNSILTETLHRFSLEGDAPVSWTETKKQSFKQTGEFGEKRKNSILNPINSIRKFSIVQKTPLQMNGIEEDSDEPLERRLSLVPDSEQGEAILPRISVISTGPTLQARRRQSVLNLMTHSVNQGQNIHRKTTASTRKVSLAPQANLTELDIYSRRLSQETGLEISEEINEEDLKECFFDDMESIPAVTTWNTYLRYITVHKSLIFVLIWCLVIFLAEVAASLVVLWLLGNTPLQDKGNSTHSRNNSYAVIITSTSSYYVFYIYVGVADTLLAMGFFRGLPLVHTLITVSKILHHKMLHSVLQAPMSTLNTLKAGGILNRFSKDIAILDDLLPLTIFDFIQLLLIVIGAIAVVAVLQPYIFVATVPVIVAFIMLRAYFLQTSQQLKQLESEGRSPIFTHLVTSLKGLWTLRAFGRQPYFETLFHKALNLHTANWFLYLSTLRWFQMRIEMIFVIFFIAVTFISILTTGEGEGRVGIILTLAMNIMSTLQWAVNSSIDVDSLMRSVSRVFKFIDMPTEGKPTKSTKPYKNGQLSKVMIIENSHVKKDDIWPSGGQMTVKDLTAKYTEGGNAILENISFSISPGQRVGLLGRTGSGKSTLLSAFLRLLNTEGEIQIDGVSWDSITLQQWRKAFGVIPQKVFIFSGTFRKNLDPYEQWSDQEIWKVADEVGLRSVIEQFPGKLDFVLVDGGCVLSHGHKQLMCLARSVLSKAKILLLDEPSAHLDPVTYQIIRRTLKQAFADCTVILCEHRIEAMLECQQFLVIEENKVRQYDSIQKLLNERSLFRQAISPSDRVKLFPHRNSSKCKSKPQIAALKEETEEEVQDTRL
Method: (§1) CF15 cells: CF15 cells are human epithelial cells of nasal origin which express the Δ508-CFTR gene.
Next, the quantity of radiotracer which leaves the cell is counted after the addition of various pharmacological agents.
The cells are cultured on 24-well plates in a suitable medium. […] The iodide equilibrates on either side of the cell membrane. A robot (MultiPROBE, Packard) carries out the following steps: the loading medium is rinsed with efflux medium in order to remove the extracellular radioactivity. The supernatant is collected every minute in hemolysis tubes and the medium is replaced with an equivalent volume (500 μl). The samples collected for the first 3 minutes are not supplemented with drug, they make it possible to obtain a stable baseline, characterizing the passive outflow of the I ions. The next 7 samples are obtained in the presence of the molecule to be tested. At the end of the experiment, the cells are lyzed by adding 500 μl of NaOH (0.1 N)/0.1% SDS (30 min), thus, the radioactivity which remained inside the cell may be determined. The radioactivity present in the hemolysis tubes is counted as counts per minute (cpm) using a gamma counter (Cobra II, Packard). The results in cpm are expressed in the form of rate of radioactive iodide outflow (R) according to the following formula: […]
This iodide flow is represented in the form of a curve. In order to quantify the outflow of iodide due to the administration of the molecule tested, the following relative flow is calculated which makes it possible to dispense with the basic flow: relative rate (min^−1)=Rpeak−Rbasal. […] The results are presented in the form of a mean+/−SEM. The student's statistical test is used to compare the effect of the drugs to the controls (the values corresponding to P<0.01 are considered as statistically significant).
The study of the targeting of the delF508-CFTR protein was carried out by combining pharmacological and cell imaging approaches, and biochemical and electrophysiological tests on […] human epithelial cells CF15 homozygous for the delF508 deletion.
For each experiment, the addition of a cocktail (10 μM forskolin+30 μM genistein) allows the activation of CFTR when it is attached to the membrane. Thus, an iodide efflux can be observed if the targeting of delF508 has been restored.

wild-type CFTR (CFTR-WT) = target: T2, wild-type CFTR (CFTR-WT) (Homo sapiens, UniProt P13569); test: iodide efflux, activation of the CFTR chloride channel in CHO cells; assay type: cell-based
T2 construct: expressed in transfected cells; host or cells: CHO (Chinese Hamster Ovary) cells
T2 sequence (P13569 whole entry): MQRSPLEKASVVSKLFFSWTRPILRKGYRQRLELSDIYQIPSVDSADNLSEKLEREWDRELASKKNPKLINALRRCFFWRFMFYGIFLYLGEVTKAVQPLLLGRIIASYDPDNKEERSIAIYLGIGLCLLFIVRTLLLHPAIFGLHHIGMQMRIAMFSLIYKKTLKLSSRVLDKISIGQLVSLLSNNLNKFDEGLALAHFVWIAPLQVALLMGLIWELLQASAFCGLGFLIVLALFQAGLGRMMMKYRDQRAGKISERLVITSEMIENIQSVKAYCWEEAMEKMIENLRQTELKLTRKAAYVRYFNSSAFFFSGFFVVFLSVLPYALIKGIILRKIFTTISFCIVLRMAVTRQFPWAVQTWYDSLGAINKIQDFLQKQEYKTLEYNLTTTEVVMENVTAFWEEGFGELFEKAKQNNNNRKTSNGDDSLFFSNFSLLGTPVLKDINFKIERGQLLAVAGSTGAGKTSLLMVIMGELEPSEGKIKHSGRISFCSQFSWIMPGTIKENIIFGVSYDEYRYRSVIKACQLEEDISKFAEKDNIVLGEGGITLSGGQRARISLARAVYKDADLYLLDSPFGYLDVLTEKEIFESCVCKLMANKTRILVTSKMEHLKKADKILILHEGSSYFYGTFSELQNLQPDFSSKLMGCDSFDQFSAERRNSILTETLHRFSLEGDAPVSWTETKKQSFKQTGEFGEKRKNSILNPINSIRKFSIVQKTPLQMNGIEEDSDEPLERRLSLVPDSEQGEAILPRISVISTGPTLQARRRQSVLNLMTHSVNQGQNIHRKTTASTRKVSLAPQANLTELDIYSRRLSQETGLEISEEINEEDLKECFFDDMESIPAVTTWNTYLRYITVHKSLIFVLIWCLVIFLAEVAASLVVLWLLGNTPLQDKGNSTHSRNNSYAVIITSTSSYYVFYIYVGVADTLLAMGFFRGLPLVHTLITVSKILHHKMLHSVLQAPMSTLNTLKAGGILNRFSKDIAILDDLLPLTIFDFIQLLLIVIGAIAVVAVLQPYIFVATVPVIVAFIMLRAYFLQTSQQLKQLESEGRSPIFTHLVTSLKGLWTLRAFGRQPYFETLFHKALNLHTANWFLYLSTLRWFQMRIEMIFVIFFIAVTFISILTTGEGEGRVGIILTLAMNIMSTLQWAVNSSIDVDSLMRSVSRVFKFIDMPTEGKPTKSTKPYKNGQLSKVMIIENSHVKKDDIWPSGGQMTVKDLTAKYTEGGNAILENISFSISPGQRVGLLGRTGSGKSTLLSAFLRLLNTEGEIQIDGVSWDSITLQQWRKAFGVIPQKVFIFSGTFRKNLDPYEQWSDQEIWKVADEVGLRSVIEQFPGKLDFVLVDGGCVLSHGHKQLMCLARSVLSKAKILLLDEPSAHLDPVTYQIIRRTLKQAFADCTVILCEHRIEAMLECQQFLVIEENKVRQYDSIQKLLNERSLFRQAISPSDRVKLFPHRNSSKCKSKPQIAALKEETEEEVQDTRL
Method: CHO-WT cells: The CHO (Chinese Hamster Ovary) cells are fibroblasts which have been transfected with the wild-type CFTR (CFTR-WT) gene. These cells will therefore overexpress the CFTR protein.
the measurements of chloride ion transport in the cells was carried out with the aid of the radioactive iodide efflux technique (Becq et al., 1999; Dormer et al., 2001). The tracer (^125I) is incorporated into the intracellular medium. Next, the quantity of radiotracer which leaves the cell is counted after the addition of various pharmacological agents. […]
(§2) The cells are cultured on 24-well plates in a suitable medium. 2 rinses with efflux medium (NaCl: 136.6 mM, KCl: 5.4 mM, KH2PO4: 0.3 mM, NaH2PO4: 0.3 mM, NaHCO3: 4.2 mM, CaCl2: 1.3 mM, MgCl2: 0.5 mm, MgSO4: 0.4 mM, HEPES: 10 mM, D-glucose: 5.6 mM) are carried out in order to remove the dead cells which release the radioactivity anarchically. […] A robot (MultiPROBE, Packard) carries out the following steps: the loading medium is rinsed with efflux medium in order to remove the extracellular radioactivity. […] At the end of the experiment, the cells are lyzed by adding 500 μl of NaOH (0.1 N)/0.1% SDS (30 min), thus, the radioactivity which remained inside the cell may be determined. The radioactivity present in the hemolysis tubes is counted as counts per minute (cpm) using a gamma counter (Cobra II, Packard). […]

G551D-CFTR = target: T3, G551D-CFTR (Homo sapiens, UniProt P13569, G551D); test: iodide efflux, activation of G551D-CFTR in CHO cells; assay type: cell-based; conditions: CHO cell
T3 construct: expressed in transfected cells; host or cells: CHO cells
T3 sequence (P13569 whole entry G551D): as the sequence (P13569 whole entry) above, with G551D counted along it
Method: (§3) the measurements of chloride ion transport in the cells was carried out with the aid of the radioactive iodide efflux technique (Becq et al., 1999; Dormer et al., 2001). The tracer (^125I) is incorporated into the intracellular medium. Next, the quantity of radiotracer which leaves the cell is counted after the addition of various pharmacological agents. Iodide is used as a tracer for the transport of chloride ions. ^125I further has the advantage of having a short life compared with that of other markers such as ^35Cl (respective ½ life: […] and 300000 years).
as §2

delF508-CFTR [2] = target: T1, delF508-CFTR; test: iodide efflux, activation of delF508 in CF15 cells after incubation at 27° C.; assay type: cell-based
Method: as §1, §3
as §2, with “determined.” for “determined. The radioactivity present in the hemolysis tubes is counted as counts per minute (cpm) using a gamma counter (Cobra II, Packard).”

delF508-CFTR [3] = target: T1, delF508-CFTR; test: immunolocalization of delF508-CFTR in CF15 cells (confocal imaging); assay type: cell-based; conditions: 100 μM aloisine A
Method: Immunolabeling makes it possible to reveal the cellular location of the CFTR protein using a primary anti-CFTR antibody (Ab), and then a secondary antibody anti-primary antibody labeled with the fluorophore Cy3.
The cells are inoculated beforehand on cover glass in appropriate culture medium. 3 washes with TBS (NaCl: 157 mM, Tris base: […], pH 7.4) of 5 min each are performed. The cells are then fixed by addition of TBS-paraformaldehyde (3%) for 20 min. After 3 washes with TBS (5 min), the cells are incubated with TBS-triton 0.1% (10 min) which allows the formation of holes in the cell membrane and then 3 washes with TBS are again carried out before bringing the cells into contact with TBS-BSA 0.5%-saponin 0.05% for 1 h. The cells are then incubated with the anti-C-terminal CFTR primary antibody (2 μg/ml) for 1 h. 3 washes with TBS-BSA-saponin of 5 min each are carried out before the incubation with the secondary antibody GAM-cy3 (1/400) for 1 h. Following 2 washes with TBS of 5 min, the nuclei are labeled by incubating with Topro3 (1/1000) for 5 min. Next, the cover glass may be mounted on the slide after 3 final washes with TBS of 5 min. […] In order to distinguish between the Cy3 and Topro3 labeling, the fluorescence color of Topro3 was changed to blue (color of the nuclei).

CHO-WT cells = test: MTT cytotoxicity test; assay type: cell-based, Chinese Hamster; conditions: various concentrations
Method: The test of toxicity to MTT is a […] test which is based on capacity of mitochondrial dehydrogenases to metabolize MTT (yellow tetrazolium salt) to formazan (purple). The absorbance, which is proportional to the concentration of dye converted, can then be measured by spectrophotometry. […] 3 controls are prepared: 100% living cells: cells without agent; 0% living cells: cells left in the open air; blank: medium without cells. […] Next, they are incubated for 4 h with 100 μl of RPMI solution supplemented with MTT (0.5 mg/ml). The medium is then removed, the addition of 100 μl of DMSO makes it possible to solubilize the dye converted (formazan). The absorbance is measured by spectrophotometry at 570 nm (purple); 630 nm (background). In order to eliminate the background, the following calculation is carried out: DOreal=DO570nm−DO630nm. Next, the results are normalized with respect to the controls (100% and 0% of living cells) and are presented in the form of mean+/−SEM.

[4] = in vivo

Compound: COc1ccc(Cl)cc1C(=O)NCCc1ccc(S(=O)(=O)NC(=O)NC2CCCCC2)cc1 [glibenclamide]
effect of known CFTR inhibitors on delF508 transport after treatment with aloisine A (delF508-CFTR [1]): blocked

EC50 (wild-type CFTR (CFTR-WT)): 152 nM | EC50 (G551D-CFTR): 1.5 nM | EC50 (delF508-CFTR [2]): 110 nM | delF508-CFTR activity after treatment (delF508-CFTR [1]; CF15 cells, 100 μM, 2 h treatment, 37° C.): restored | EC50 (delF508-CFTR [1]; CF15 cells, 2 h treatment, then 10 μM forskolin+30 μM genistein, read-out: EC50 of retargeting of delF508-CFTR (restored iodide efflux)): 50000 nM and 49000 nM
Compound: CCCCc1c(-c2ccc(O)cc2)[nH]c2nccnc12 [aloisine A]
localization of the delF508 protein (delF508-CFTR [3]): redirect the delF508 protein to the membrane | cell viability (MTT) (CHO-WT cells; 2 h incubation): viable for all the concentrations | cell viability (MTT) (CHO-WT cells; 24 h incubation): viable for all the concentrations | toxicity on animals [4]: very low toxicity

effect of known CFTR inhibitors on delF508 transport after treatment with aloisine A (delF508-CFTR [1]): insensitive
Compound: O=S(=O)(O)c1cc(N=C=S)ccc1C=Cc1ccc(N=C=S)cc1S(=O)(=O)O [DIDS]

Compound: C[C@H]1CCC/C=C/[C@@H]2C[C@H](O)C[C@H]2[C@H](O)/C=C/C(=O)O1 [Brefeldin A]
competition with aloisine A: effect on the aloisine A-induced retargeting of delF508-CFTR (delF508-CFTR [1]; iodide efflux, CF15 cells): inhibition

effect of known CFTR inhibitors on delF508 transport after treatment with aloisine A (delF508-CFTR [1]): blocked
Compound: O=C(O)c1ccccc1Nc1ccccc1 [DPC]
